Source: patent US20150183791A1, “IMIDAZO[1,2-b]PYRIDAZINE-BASED COMPOUNDS, COMPOSITIONS COMPRISING THEM, AND METHODS OF THEIR USE” (LEXICON PHARMACEUTICALS, INC., priority 2013, published 2015)

Key:
[1] = target: T1, AAK1 (full length human) transfected with Flag/AP2MI in HEK293F cells; phospho-mu2 (Homo sapiens, UniProt Q2M2I8); assay: HEK281 cell-based assay; settings: HEK293F cells transfected with human AAK1 and AP2M1, 3 hours with compound, phospho-mu2 Western blot normalized to total Mu2
T1 construct: HA; expressed in transfected cells; host or cells: HEK293F
T1 sequence (Q2M2I8 1-863 isoform Q2M2I8-2): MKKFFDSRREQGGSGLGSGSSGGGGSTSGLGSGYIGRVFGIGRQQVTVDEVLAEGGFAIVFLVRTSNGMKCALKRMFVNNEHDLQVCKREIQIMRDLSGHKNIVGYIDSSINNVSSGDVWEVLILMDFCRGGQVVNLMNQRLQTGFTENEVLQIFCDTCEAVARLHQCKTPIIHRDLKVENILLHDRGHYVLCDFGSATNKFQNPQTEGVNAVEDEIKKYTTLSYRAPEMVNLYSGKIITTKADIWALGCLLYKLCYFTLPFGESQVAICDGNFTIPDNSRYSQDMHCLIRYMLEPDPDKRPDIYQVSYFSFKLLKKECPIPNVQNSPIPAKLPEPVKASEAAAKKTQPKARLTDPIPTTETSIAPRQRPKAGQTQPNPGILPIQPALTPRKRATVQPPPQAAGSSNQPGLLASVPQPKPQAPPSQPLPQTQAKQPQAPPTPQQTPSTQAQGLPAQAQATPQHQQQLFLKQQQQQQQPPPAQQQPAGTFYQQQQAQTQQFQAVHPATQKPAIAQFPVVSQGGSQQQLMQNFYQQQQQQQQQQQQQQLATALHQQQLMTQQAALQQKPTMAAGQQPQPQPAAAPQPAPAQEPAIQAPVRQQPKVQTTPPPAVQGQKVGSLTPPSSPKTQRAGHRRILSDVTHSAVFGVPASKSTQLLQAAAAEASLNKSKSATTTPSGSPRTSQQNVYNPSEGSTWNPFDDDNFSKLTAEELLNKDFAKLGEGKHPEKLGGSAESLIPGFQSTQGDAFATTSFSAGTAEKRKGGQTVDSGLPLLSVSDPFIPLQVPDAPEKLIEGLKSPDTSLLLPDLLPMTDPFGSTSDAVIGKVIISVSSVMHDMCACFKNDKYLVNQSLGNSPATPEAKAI
Method: HEK293F cells were cultured in media containing DMEM (Gibco, cat. #11965), 10% FBS (SAFC Biosciences, cat. #12103C), 1×GPS (glutamine, penicillin and streptomycin). On day one, cells were plated on a 10 cm dish so that they are ˜80% confluent at time of transfection. Roughly 12 million cells were in a 10 cm dish at time of transfection. On day two, each dish was transfected with 48 ug DNA and 144 ul Lipofectamine 2000 (Invitrogen, cat.#11668-019). The DNA was comprised of a mixture (per 10 cm dish) containing 3 ug AAK1/HA/pIRES (full length human, NCBI accession no. NP_055726.2), 45 μg Flag/AP2MI/pcDNA (full length human), and 1.5 ml OPTI-MEM. The Lipofectamine 2000 is made up of a mixture (per 10 cm dish) containing 144 μl Lipofectamine 2000 and 1.5 ml OPTI-MEM. Each mixture was transferred to individual 15 ml tubes and incubated at room temperature for 5 minutes, and then the two mixes were combined and incubated at room temperature for 20 minutes. Growth media was then aspirated from each 10 cm plate and replaced with 10 ml of DMEM+10% FBS (no GPS). Finally, 3 ml DNA/Lipofectamine mix was added to each 10 cm dish and mix gently followed by incubate of plate overnight at 37° C. and 5% CO2.
On day three, compounds were diluted in 100% DMSO at 1000× final concentration, followed by 3-fold serial dilutions for a total of 5 concentrations tested. Four compounds were tested per 10 cm dish. One ul of each compound dilution was then pipetted into a deep-well, 96-well plate, followed by addition of 500 μl DMEM+0.5% FBS into each well for a 2× final concentration of each compound. Cells were resuspended in a 10 cm dish by simple pipetting (HEK293 cells come off the plate that easy at this point) and then transferred to a 50 ml conical tube and pelleted by centrifugation at 1000 rpm for 5 min. Cell pellets were then resuspended in 2.75 ml DMEM+0.5% FBS per 10 cm dish and 100 μl of cell suspension transferred into each well of 96-well TC plate. Finally, 100 μl of 2× compound diluted in DMEM+0.5% FBS was then added into wells containing cell suspension for a 1× final concentration. Plates were then incubated at 37° C. and 5% CO2 for 3 hours followed by transferring of cell suspensions from each well into 12-tube PCR strips. The PCR strips were spun in a tip rack at 1000 rpm for 5 minutes to pellet cells and media was then removed by pipetting without disturbing the cell pellet.
To prepare for Western Blot analysis, cell pellets were resuspend in 40 ul 1×LDS-PAGE sample buffer (Invitrogen, cat.# NP0008) +2× Halt phophatase and protease inhibitor cocktail (Thermo Scientific, cat.#1861284), followed by sonicating each with microtip sonicator set at 5 for 8-10 seconds. Five ul of 10× NuPage Sample Reducing Agent (with […]) was to each sample followed by heat denaturing at 70 C for 10 min on PCR machine. A total of 10 μl per sample was loaded into each lane of a 4-20% Tris-Glycine Criterion 26-well gel (Biorad, cat.#345-0034) for the phospho-mu2 blot and 10 μl per lane in a 4-12% Bis-Tris (+MES buffer) NuPAGE 26-well gel (Invitrogen, cat.# WG1403BX10) for the mu2 blot. For controls, 2 ng of phospho-mu2 or 20 ng mu2/Flag proteins were loaded in the last well of each gel. After SDS-PAGE, samples on each gel were transferred to PVDF membrane using an iBlot and membranes were blocked for one hour in TBST+5% milk, followed by wash 3× for 5-10 min with TBST. Criterion gels were probed with rabbit anti-phospho-mu2 (1:5000; a rabbit polyclonal antibody produced by New England Peptide and affinity purified at Lexicon) in TBST+5% BSA, whereas, NuPAGE gels were probed with mouse anti-Flag (1:500; Sigma, cat.# F1804) in TBST+5% milk, and these primary antibodies were incubated overnight at 4° C. on a rocker. […]

[2] = target: AAK1 (full-length human protein) (Homo sapiens, UniProt Q2M2I8); assay: P81 filter plate assay; assay type: biochemical
Sequence of AAK1 (full-length human protein) (Q2M2I8 1-863 isoform Q2M2I8-2): as above
Method: Compounds were serially diluted into a Labcyte LDV plate (Labcyte, cat# LP-0200) using a Mutiprobe (PerkinElmer) and Biomek FX (Beckman Coulter) so that the highest compound concentration was at 96 μM. Compounds were then pinged (75 nL per well) into a Greiner 384-well reaction plate (Greiner, #781076) using an ECHO 550 Liquid Handler (Labcyte). A total of 12 μl reaction buffer (IMAP buffer containing Tween and DTT, from Molecular Devices) was then added to each well of columns 1 and 13 for the negative controls and 12 μl of 2×AAK1 (0.2 nM full-length human protein, NCBI accession no. NP_055726.2) was added to the remaining wells. Enzyme was then pre-incubated with compound for 10 minutes at room temperature. Reactions were initiated upon Minitrak (PerkinElmer) addition of 12 μl substrate mix containing 2× Mu2 (0.2 μM, full length human protein), 2× cold ATP (2 μM), and 1.3 μCi of hot ^33P-ATP. Reactions proceeded for one hour at room temperature. Meanwhile, Millipore 384-well P81 filter plates (Millipore, catalog # MZPHN0 W10) were placed on a plate washer (Zoom ZW, from Titertek) and pre-wet with 50 μl 1% phosphoric acid. Kinase reactions were then stopped upon addition of 24 μl of 2% phosphoric acid to each well and the Minitrak was then used to transfer 40 μl from each well into the pre-wet Millipore 384-well P81 filter plates. Reaction mixtures were incubated for 10 minutes at room temperature in the P81 plates, followed by washing five times with 100 μl/well of 1% phosphoric acid using the Zoom filter washer. The bottom of each filter plate was sealed followed by addition of 20 μl Microscint 40 to each well, sealing the top of the plates with Flashplate cover, and then waiting one hour until reading on the TopCount (Perkin Elmer).

[3] = 0.2 nM-scale full-length human AAK1, Mu2 substrate, 33P-ATP, one hour at room temperature, class symbols
[4] = same assay, given as numeric bound instead of class symbol

Row | SMILES | CBA IC50 [1] | IC50 [2, 3] [µM] | IC50 [2, 4] [µM]
1 | CC(=O)c1cccc(-c2ccc3ncc(Br)n3n2)c1 [1-(3-(3-Bromoimidazo[1,2-b]pyridazin-6-yl)phenyl)ethanone] | * (“*” means less than or equal to 1.0 μM) |  | 
2 | CCCCCc1ccc2ncc(-c3ccc(C(C)=O)s3)n2n1 [1-(5-(6-Pentylimidazo[1,2-b]pyridazin-3-yl)thiophen-2-yl)ethanone] | * (“*” means less than or equal to 1.0 μM) |  | 
3 | CC(=O)c1cccc(-c2ccc3ncc(-c4ccc(CN)cc4)n3n2)c1 [1-(3-(3-(4-(Aminomethyl)phenyl)imidazo[1,2-b]pyridazin-6-yl)phenyl)ethanone] | ** (“**” means a value of less than or equal to 0.1 μM) | ≤ 0.01 | 
4 | CC(C)CCC(=O)c1cccc(-c2ccc3ncc(-c4ccc(CN)cc4)n3n2)c1 [1-(3-(3-(4-(Aminomethyl)phenyl)imidazo[1,2-b]pyridazin-6-yl)phenyl)-4-methylpentan-1-one] | ** (“**” means a value of less than or equal to 0.1 μM) | ≤ 0.01 | 
5 | CC(=O)c1ccc(-c2cnc3ccc(-c4ccc(C#N)cc4)nn23)s1 [4-[3-(5-Acetyl-thiophen-2-yl)-imidazo[1,2-b]pyridazin-6-yl]-benzonitrile] | * (“*” means less than or equal to 1.0 μM) |  | 
6 | CC(C)CNC(=O)c1cncc(-c2ccc3ncc(-c4ccc(CN)cc4)n3n2)c1 [5-(3-(4-(Aminomethyl)phenyl)imidazo[1,2-b]pyridazin-6-yl)-N-isobutylnicotinamide] | ** (“**” means a value of less than or equal to 0.1 μM) | ≤ 0.01 | 
7 | CC(=O)c1cccc(-c2ccc3ncc(-c4ccc(C(N)=O)cc4)n3n2)c1 [4-(6-(3-Acetylphenyl)imidazo[1,2-b]pyridazin-3-yl)benzamide] | * (“*” means less than or equal to 1.0 μM) |  | 
8 | CNC(=O)c1ccc(-c2cnc3ccc(-c4cccc(C(=O)NCC(C)C)c4)nn23)cc1 [N-isobutyl-3-(3-(4-(methylcarbamoyl)phenyl)imidazo[1,2-b]pyridazin-6-yl)benzamide] | * (“*” means less than or equal to 1.0 μM) | ≤ 0.01 | 
9 | CC(=O)c1cnc2ccc(-c3ccn(CCC(C)C)c(=O)c3)nn12 [4-(3-Acetylimidazo[1,2-b]pyridazin-6-yl)-1-isopentylpyridin-2(1H)-one] |  | 0.01 to 0.1 | 
10 | COc1cnccc1-c1cnc2ccc(-c3cccc(C(=O)NCC(C)C)c3)nn12 [N-isobutyl-3-(3-(3-methoxypyridin-4-yl)imidazo[1,2-b]pyridazin-6-yl)benzamide] | * (“*” means less than or equal to 1.0 μM) | ≤ 0.01 | 
11 | CC(C)CCn1ccc(-c2ccc3ncc(Cl)n3n2)cc1=O [4-(3-Chloroimidazo[1,2-b]pyridazin-6-yl)-1-isopentylpyridin-2(1H)-one] |  | ≤ 0.01 | 
12 | CC(C)C[C@H](N)Cn1ccc(-c2ccc3ncc(Cl)n3n2)cc1=O [(S)-1-(2-Amino-4-methylpentyl)-4-(3-chloroimidazo[1,2-b]pyridazin-6-yl)pyridin-2(1H)-one] |  | 0.1 to 1 | 
13 | CCOc1ncccc1-c1cnc2ccc(-c3ccn(CCC(C)C)c(=O)c3)nn12 [4-(3-(2-Ethoxypyridin-3-yl)imidazo[1,2-b]pyridazin-6-yl)-1-isopentylpyridin-2(1H)-one] |  | ≤ 0.01 | 
14 | CC(C)CNC(=O)c1cccc(-c2ccc3ncc(-c4ccncc4)n3n2)c1 [N-isobutyl-3-(3-(pyridin-4-yl)imidazo[1,2-b]pyridazin-6-yl)benzamide] | * (“*” means less than or equal to 1.0 μM) |  | > 0.3
15 | CC(C)OC(=O)n1cc(-c2ccc3nccn3n2)cn1 [Isopropyl 4-(imidazo[1,2-b]pyridazin-6-yl)-1H-pyrazole-1-carboxylate] |  |  | > 0.3
16 | CC(C)CNC(=O)c1cccc(-c2ccc3ncc(-c4ccc(CN)cc4)n3n2)c1 [3-(3-(4-(Aminomethyl)phenyl)imidazo[1,2-b]pyridazin-6-yl)-N-isobutylbenzamide] | ** (“**” means a value of less than or equal to 0.1 μM) | ≤ 0.01 | 
17 | Cc1cnc2ccc(-c3ccn(C[C@@H](N)CC(C)C)c(=O)c3)nn12 [(S)-1-(2-Amino-4-methylpentyl)-4-(3-methylimidazo[1,2-b]pyridazin-6-yl)pyridin-2(1H)-one] |  |  | > 0.3
